Values joined by “and” are separate entries in the source; they are usually repeats but may differ in a detail not shown here. Equal entries are not always repeated. Positions of bridges follow the written chain, without caps; N, C: chain ends. Non-standard residues stand in square brackets, D forms with d. Residues, ends and D or L forms follow the SMILES beside them. Nle = CCCC[C@H](N)C(=O)O

For one series, the target named is T1, human MC4R (Homo sapiens, UniProt P32245).
T1 construct: host or cells: HEK-293 cells stably expressing the GScAMP22F split-luciferase cAMP sensor and hMC4R, G418 selection
T1 sequence (P32245 whole entry): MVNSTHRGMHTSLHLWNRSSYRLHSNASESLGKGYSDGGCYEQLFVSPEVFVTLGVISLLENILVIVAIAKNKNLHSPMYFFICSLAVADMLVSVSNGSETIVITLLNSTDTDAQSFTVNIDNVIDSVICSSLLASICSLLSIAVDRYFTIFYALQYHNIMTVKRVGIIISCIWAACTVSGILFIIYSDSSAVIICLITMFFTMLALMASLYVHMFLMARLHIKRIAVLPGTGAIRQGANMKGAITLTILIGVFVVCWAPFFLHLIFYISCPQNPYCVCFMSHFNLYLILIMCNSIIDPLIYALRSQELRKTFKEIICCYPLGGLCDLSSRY
Kind of series: split-luciferase cAMP sensor assay, agonist mode (measurement window 1), hMC4R. Type of series: cell-based. The following applies: % maximal activation, agonist mode; read-out: MC4R cAMP % max activation. The method in brief:
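EC50 values come from a four-parameter variable-slope fit of luminescence in measurement window 1, capturing direct peptide effects on receptor-expressing cells with a cAMP22f luciferase sensor. Cells were preloaded with 4% D-luciferin, serum-free medium; 20 μM forskolin normalized for cell number and transducer efficiency.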

The nature of another series: Mouse plasma stability. It is filed as in vitro ADME. The following applies: pooled mouse plasma, 37° C. The procedure, abridged:
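Compounds at 1 μM in pooled mouse plasma at 37° C. were sampled at 0.5–240 min and quenched with cold acetonitrile containing internal standard. LC/MS/MS gave % remaining. The slope of ln(compound/IS peak-area ratio) against time was determined.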

Series [1] is described as follows: Pharmacokinetics: plasma and brain concentration after IP injection. It is filed as in vivo, mouse. The following applies: IP 15 mg/kg; for Brain concentration, individual mice 1-3 / Plasma concentration, individual mice 1-3: 15 mg/kg. As to the method:
FIG. 5. Pharmacokinetic data for an exemplary peptide relative to setmelanotide. Peptides at 1.5 mg/mL in PBS containing 10% DMSO and 10% PEG-400 were given by IP injection (15 mg/kg) to female CD-1 mice (n=15). At the given time points (0.5 h, 2 h, 4 h, 7 h and 24 h), brain samples were taken out and frozen at −80° C. immediately for later preparation and analysis, and blood samples were collected using heparinized calibrated pipettes. Blood samples were centrifuged at 15000 rpm for 10 min. Subsequently, blood plasma was collected from the upper layer. The plasma was frozen at −80° C. for later analysis. Peptide concentrations at times indicated were determined by LC MS/MS, using non-zero standards in blank Plasma and Brain Samples.
The drug at 1.5 mg/mL in PBS containing 10% DMSO and 10% PEG-400 was given by IP injection (15 mg/kg). At the given time points (0.5 h, 2 h, 4 h, 7 h and 24 h), brain samples were taken out and frozen at −80° C. immediately for later preparation and analysis, and blood samples were collected using heparinized calibrated pipettes. Blood samples were centrifuged at 15000 rpm for 10 min. Subsequently, blood plasma was collected from the upper layer. The plasma was frozen at −80° C. for later analysis.
The analytical curves were constructed using non-zero standards in the blank Plasma and Brain Samples. A blank sample (matrix sample processed without internal standard) was used to exclude contamination. The linear regression analysis of CTX1227/setmelanotide were performed by plotting the peak area ratio (y) against the CTX1227/setmelanotide concentration (x) in ng/mL, respectively.

In the case of `CCCC[C@H](NC(=O)[C@H](CCCNC(=N)N)NC(C)=O)C(=O)N[C@H]1CSSC[C@@H](C(N)=O)NC(=O)[C@H](Cc2c[nH]c3ccccc23)NC(=O)[C@H](CCCNC(=N)N)NC(=O)[C@@H](Cc2ccccc2)NC(=O)[C@H](Cc2c[nH]cn2)NC1=O` [CTX-1227, Arg-Nle-cyclo(Cys-His-D-Phe-Arg-Trp-Cys)] (Ac-R[Nle]CH[dF]RWC-NH2; disulfide 3-8 (inferred)), the Emax at human MC4R is 103%. For the same compound, the half-life – broadly, the time in which the quantity being followed falls by half – at 1 µM in “Mouse plasma stability” came out at 1.05 h. The “Brain concentration, individual mice 1-3” value in series [1] (0.5 h, brain, individual animals) is 99 ng/g and 263.5 ng/g and 182 ng/g; in series [1] (2 h, brain, individual animals), 287.5 ng/g and 176.5 ng/g and 327.5 ng/g; in series [1] (4 h, brain, individual animals), 158 ng/g and 142.5 ng/g and 210 ng/g; in series [1] (7 h, brain, individual animals), 223 ng/g and 224.5 ng/g and 119 ng/g; in series [1] (24 h, brain, individual animals) it was “BlQ and BLQ (2×)”. For the same compound, the “Plasma concentration, individual mice 1-3” value is 20900 ng/mL and 25000 ng/mL and 68700 ng/mL in series [1] (0.5 h, plasma, individual animals); 50200 ng/mL and 17300 ng/mL and 20700 ng/mL in series [1] (2 h, plasma, individual animals); 19400 ng/mL and 23300 ng/mL and 33400 ng/mL in series [1] (4 h, plasma, individual animals); 9360 ng/mL and 9210 ng/mL and 2880 ng/mL in series [1] (7 h, plasma, individual animals); “BLQ” in series [1] (24 h, plasma, individual animals). In series [1] (female, CD-1, mouse, mice, 0.5 h, brain, mean of 3), the tissue level at time at 0.5 h worked out at 182 ng/g. The compound also came in with a level at 0.5 h in series [1] (female, CD-1, mouse, mice, 0.5 h, plasma, mean of 3) of 38200 ng/mL. For the same compound, the tissue level at time at 2 h in series [1] (female, CD-1, mouse, mice, 2 h, brain, mean of 3) is 264 ng/g. This compound gave a level at 2 h in series [1] (female, CD-1, mouse, mice, 2 h, plasma, mean of 3) of 29400 ng/mL. In addition, the tissue level at time at 4 h in series [1] (female, CD-1, mouse, mice, 4 h, brain, mean of 3) is 170 ng/g. In series [1] (female, CD-1, mouse, mice, 4 h, plasma, mean of 3), the level at 4 h was determined as 25400 ng/mL. Moreover, the tissue level at time at 7 h in series [1] (female, CD-1, mouse, mice, 7 h, brain, mean of 3) came to 189 ng/g. In series [1] (female, CD-1, mouse, mice, 7 h, plasma, mean of 3), this compound came in with a level at 7 h of 7150 ng/mL. Moreover, the level at 24 h in series [1] (female, CD-1, mouse, mice, 24 h, plasma, individual animals, read-out: Plasma concentration, individual mice 1-3) was determined as 15 ng/mL.
